What was measured:
Prothrombin = Prothrombin (Bos taurus, UniProt P00735); test: Enzyme Inhibition Assay; settings: pH 8.5; 22 °C
Experimental: (§1) The enzyme reaction was initiated by adding fluorescence peptide substrate to reaction mixture containing enzyme and test compounds. […] Hydrolysis rates were recorded in presence of six to seven different concentrations of inhibitor.

[1] = target: T1, Suppressor of tumorigenicity 14 protein (Homo sapiens, UniProt Q9Y5Y6); test: Enzyme Inhibition Assay; settings: pH 8.5; 22 °C
T1 sequence (Q9Y5Y6 whole entry): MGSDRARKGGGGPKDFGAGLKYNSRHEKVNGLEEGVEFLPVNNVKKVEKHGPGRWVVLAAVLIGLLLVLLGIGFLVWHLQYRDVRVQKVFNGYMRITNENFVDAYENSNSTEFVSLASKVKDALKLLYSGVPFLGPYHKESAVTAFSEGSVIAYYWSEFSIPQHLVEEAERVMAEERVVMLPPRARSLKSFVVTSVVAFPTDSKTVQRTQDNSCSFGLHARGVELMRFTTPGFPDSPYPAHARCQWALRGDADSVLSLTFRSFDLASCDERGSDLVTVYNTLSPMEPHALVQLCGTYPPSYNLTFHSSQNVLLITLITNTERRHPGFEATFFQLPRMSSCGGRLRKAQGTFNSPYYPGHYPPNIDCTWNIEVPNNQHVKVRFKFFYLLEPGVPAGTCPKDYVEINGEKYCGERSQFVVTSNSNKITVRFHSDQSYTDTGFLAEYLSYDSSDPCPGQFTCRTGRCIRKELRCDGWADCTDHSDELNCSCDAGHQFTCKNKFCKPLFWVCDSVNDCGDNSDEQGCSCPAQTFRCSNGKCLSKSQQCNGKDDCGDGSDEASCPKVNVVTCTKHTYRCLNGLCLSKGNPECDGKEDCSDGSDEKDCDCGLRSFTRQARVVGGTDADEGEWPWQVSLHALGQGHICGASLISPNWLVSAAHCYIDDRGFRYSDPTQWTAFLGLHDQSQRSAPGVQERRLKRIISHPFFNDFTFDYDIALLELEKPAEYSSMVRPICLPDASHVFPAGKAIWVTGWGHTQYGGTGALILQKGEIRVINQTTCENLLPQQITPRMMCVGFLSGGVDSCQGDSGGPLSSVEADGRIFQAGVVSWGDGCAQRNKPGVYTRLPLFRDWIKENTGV
Experimental: as §1

| SMILES | Ki (Prothrombin) | Ki [1] |
| --- | --- | --- |
| CC[C@H](C)[C@@H]1NC(=O)[C@@H]2CCCN2C(=O)[C@@H]2CCCN2C(=O)[C@H]([C@@H](C)CC)NC(=O)[C@H](CO)NC(=O)[C@H](CCCCN)NC(=O)[C@H]([C@@H](C)O)NC(=O)[C@@H]2CSSC[C@H](NC1=O)C(=O)N[C@@H](Cc1c(F)c(F)c(F)c(F)c1F)C(=O)N1CCC[C@H]1C(=O)N[C@@H](CC(=O)O)C(=O)NCC(=O)N[C@@H](CCCN=C(N)N)C(=O)N2 | 33.6 µM | 0.89 µM |
| CC[C@H](C)[C@@H]1NC(=O)[C@@H]2CCCN2C(=O)[C@@H]2CCCN2C(=O)[C@H]([C@@H](C)CC)NC(=O)[C@H](CO)NC(=O)[C@H](CCCN)NC(=O)[C@H]([C@@H](C)O)NC(=O)[C@@H]2CSSC[C@H](NC1=O)C(=O)N[C@@H](Cc1ccccc1)C(=O)N1CCC[C@H]1C(=O)N[C@@H](CC(=O)O)C(=O)NCC(=O)N[C@@H](CCCN=C(N)N)C(=O)N2 [2-[(1R,4S,7S,13S,19S,22S,25S,28S,31R,34S,40S,43S,49S)-25-(3-aminopropyl)-49-benzyl-4,19-bis[(2S)-butan-2-yl]-34-(3-carbamimidamidopropyl)-28-[(1R)-1-hydroxyethyl]-22-(hydroxymethyl)-3,6,12,18,21,24,27,30,33,36,39,42,48,51-tetradecaoxo-53,54-dithia-2,5,11,17,20,23,26,29,32,35,38,41,47,50-tetradecaazapentacyclo[29.20.4.0^{7,11}.0^{13,17}.0^{43,47}]pentapentacontan-40-yl]acetic acid] | – | > 250 µM |
| CC[C@H](C)[C@@H]1NC(=O)[C@@H]2CCCN2C(=O)[C@@H]2CCCN2C(=O)[C@H]([C@@H](C)CC)NC(=O)[C@H](CO)NC(=O)[C@H](CCCCN)NC(=O)[C@H]([C@@H](C)O)NC(=O)[C@@H]2CSSC[C@H](NC1=O)C(=O)N[C@@H](Cc1ccc(-c3ccccc3)cc1)C(=O)N1CCC[C@H]1C(=O)N[C@@H](CC(=O)O)C(=O)NCC(=O)N[C@@H](CCCN=C(N)N)C(=O)N2 [2-[(1R,4S,7S,13S,19S,22S,25S,28S,31R,34S,40S,43S,49S)-25-(4-aminobutyl)-4,19-bis[(2S)-butan-2-yl]-34-(3-carbamimidamidopropyl)-28-[(1R)-1-hydroxyethyl]-22-(hydroxymethyl)-3,6,12,18,21,24,27,30,33,36,39,42,48,51-tetradecaoxo-49-[(4-phenylphenyl)methyl]-53,54-dithia-2,5,11,17,20,23,26,29,32,35,38,41,47,50-tetradecaazapentacyclo[29.20.4.0^{7,11}.0^{13,17}.0^{43,47}]pentapentacontan-40-yl]acetic acid] | 25.6 µM | 1 µM |
| CC[C@H](C)[C@@H]1NC(=O)[C@@H]2CCCN2C(=O)[C@@H]2CCCN2C(=O)[C@H]([C@@H](C)CC)NC(=O)[C@H](CO)NC(=O)[C@H](CCCCN)NC(=O)[C@H]([C@@H](C)O)NC(=O)[C@@H]2CSSC[C@H](NC1=O)C(=O)N[C@@H](Cc1ccc3ccccc3c1)C(=O)N1CCC[C@H]1C(=O)N[C@@H](CC(=O)O)C(=O)NCC(=O)N[C@@H](CCCN=C(N)N)C(=O)N2 [2-[(1R,4S,7S,13S,19S,22S,25S,28S,31R,34S,40S,43S,49S)-25-(4-aminobutyl)-4,19-bis[(2S)-butan-2-yl]-34-(3-carbamimidamidopropyl)-28-[(1R)-1-hydroxyethyl]-22-(hydroxymethyl)-49-(naphthalen-2-ylmethyl)-3,6,12,18,21,24,27,30,33,36,39,42,48,51-tetradecaoxo-53,54-dithia-2,5,11,17,20,23,26,29,32,35,38,41,47,50-tetradecaazapentacyclo[29.20.4.0^{7,11}.0^{13,17}.0^{43,47}]pentapentacontan-40-yl]acetic acid] | 16.3 µM | 0.45 µM |
| CC[C@H](C)[C@@H]1NC(=O)[C@@H]2CCCN2C(=O)[C@@H]2CCCN2C(=O)[C@H]([C@@H](C)CC)NC(=O)[C@H](CO)NC(=O)[C@H](CCCCN)NC(=O)[C@H]([C@@H](C)O)NC(=O)[C@@H]2CSSC[C@H](NC1=O)C(=O)N[C@@H](Cc1ccccc1)C(=O)N1CCC[C@H]1C(=O)N[C@@H](CC(=O)O)C(=O)NCC(=O)N[C@@H](CCCNC(=N)N)C(=O)N2 [2-[(1R,4S,7S,13S,19S,22S,25S,28S,31R,34S,40S,43S,49S)-25-(4-aminobutyl)-49-benzyl-4,19-bis[(2S)-butan-2-yl]-34-(3-carbamimidamidopropyl)-28-[(1R)-1-hydroxyethyl]-22-(hydroxymethyl)-3,6,12,18,21,24,27,30,33,36,39,42,48,51-tetradecaoxo-53,54-dithia-2,5,11,17,20,23,26,29,32,35,38,41,47,50-tetradecaazapentacyclo[29.20.4.0^{7,11}.0^{13,17}.0^{43,47}]pentapentacontan-40-yl]acetic acid] | – | 0.1 µM |
| CC[C@H](C)[C@@H]1NC(=O)[C@@H]2CCCN2C(=O)[C@@H]2CCCN2C(=O)[C@H]([C@@H](C)CC)NC(=O)[C@H](CO)NC(=O)[C@H](CCCCN)NC(=O)[C@H]([C@@H](C)O)NC(=O)[C@@H]2CSCSC[C@H](NC1=O)C(=O)N[C@@H](Cc1ccccc1)C(=O)N1CCC[C@H]1C(=O)N[C@@H](CC(=O)O)C(=O)NCC(=O)N[C@@H](CCCN=C(N)N)C(=O)N2 [2-[(1R,4S,7S,13S,19S,22S,25S,28S,31R,34S,40S,43S,49S)-25-(4-aminobutyl)-49-benzyl-4,19-bis[(2S)-butan-2-yl]-34-(3-carbamimidamidopropyl)-28-[(1R)-1-hydroxyethyl]-22-(hydroxymethyl)-3,6,12,18,21,24,27,30,33,36,39,42,48,51-tetradecaoxo-53,55-dithia-2,5,11,17,20,23,26,29,32,35,38,41,47,50-tetradecaazapentacyclo[29.20.5.0^{7,11}.0^{13,17}.0^{43,47}]hexapentacontan-40-yl]acetic acid] | 10 µM | 0.16 µM |
| CC[C@H](C)[C@@H]1NC(=O)[C@@H]2CCCN2C(=O)[C@@H]2CCCN2C(=O)[C@H]([C@@H](C)CC)NC(=O)[C@H](CO)NC(=O)[C@H](CCCCN)NC(=O)[C@H]([C@@H](C)O)NC(=O)[C@@H]2CSSC[C@H](NC1=O)C(=O)N[C@@H](Cc1ccccc1)C(=O)N1CCC[C@H]1C(=O)N[C@@H](CC(=O)O)C(=O)NCC(=O)N[C@@H](CCCCN=C(N)N)C(=O)N2 [2-[(1R,4S,7S,13S,19S,22S,25S,28S,31R,34S,40S,43S,49S)-25-(4-aminobutyl)-49-benzyl-4,19-bis[(2S)-butan-2-yl]-34-(4-carbamimidamidobutyl)-28-[(1R)-1-hydroxyethyl]-22-(hydroxymethyl)-3,6,12,18,21,24,27,30,33,36,39,42,48,51-tetradecaoxo-53,54-dithia-2,5,11,17,20,23,26,29,32,35,38,41,47,50-tetradecaazapentacyclo[29.20.4.0^{7,11}.0^{13,17}.0^{43,47}]pentapentacontan-40-yl]acetic acid] | 7.63 µM | 0.857 µM |
| CC[C@H](C)[C@@H]1NC(=O)[C@@H]2CCCN2C(=O)[C@@H]2CCCN2C(=O)[C@H]([C@@H](C)CC)NC(=O)[C@H](CO)NC(=O)[C@H](CCCCN)NC(=O)[C@H]([C@@H](C)O)NC(=O)[C@@H]2CSSC[C@H](NC1=O)C(=O)N[C@@H](Cc1ccccc1)C(=O)N1CCC[C@H]1C(=O)N[C@@H](CC(=O)O)C(=O)NCC(=O)N[C@@H](CCCNC(N)=O)C(=O)N2 [2-[(1R,4S,7S,13S,19S,22S,25S,28S,31R,34S,40S,43S,49S)-25-(4-aminobutyl)-49-benzyl-4,19-bis[(2S)-butan-2-yl]-34-[3-(carbamoylamino)propyl]-28-[(1R)-1-hydroxyethyl]-22-(hydroxymethyl)-3,6,12,18,21,24,27,30,33,36,39,42,48,51-tetradecaoxo-53,54-dithia-2,5,11,17,20,23,26,29,32,35,38,41,47,50-tetradecaazapentacyclo[29.20.4.0^{7,11}.0^{13,17}.0^{43,47}]pentapentacontan-40-yl]acetic acid] | 827 µM | 22.5 µM |
| CC[C@H](C)[C@@H]1NC(=O)[C@@H]2CCCN2C(=O)[C@@H]2CCCN2C(=O)[C@H]([C@@H](C)CC)NC(=O)[C@H](CO)NC(=O)[C@H](CCCCN)NC(=O)[C@H]([C@@H](C)O)NC(=O)[C@@H]2CCSSC[C@H](NC1=O)C(=O)N[C@@H](Cc1ccccc1)C(=O)N1CCC[C@H]1C(=O)N[C@@H](CC(=O)O)C(=O)NCC(=O)N[C@@H](CCCN=C(N)N)C(=O)N2 [2-[(1R,4S,7S,13S,19S,22S,25S,28S,31S,34S,40S,43S,49S)-25-(4-aminobutyl)-49-benzyl-4,19-bis[(2S)-butan-2-yl]-34-(3-carbamimidamidopropyl)-28-[(1R)-1-hydroxyethyl]-22-(hydroxymethyl)-3,6,12,18,21,24,27,30,33,36,39,42,48,51-tetradecaoxo-53,54-dithia-2,5,11,17,20,23,26,29,32,35,38,41,47,50-tetradecaazapentacyclo[29.20.5.0^{7,11}.0^{13,17}.0^{43,47}]hexapentacontan-40-yl]acetic acid] | – | 0.38 µM |
